Measured values as given in the NIST ThermoML archive (doi:10.1016/j.jct.2012.08.010).
± gives the expanded uncertainty stated by the source.

Assay: xn = mol fraction of the nth substance listed
Conditions: 101 kPa, Liquid, Vibrating tube method

C=C[Si]1(C)O[Si](C)(C=C)O[Si](C)(C=C)O[Si](C)(C=C)O1 (stereo not given) [2,4,6,8-tetramethyl-2,4,6,8-tetravinylcycloterasiloxane] + Cc1ccccc1C
mass density (288.15 K, x1 = 0.0501): 899.27 ± 0.13 kg/m3 | mass density (288.15 K, x1 = 0.1045): 912.95 ± 0.13 kg/m3 | mass density (288.15 K, x1 = 0.1503): 922.61 ± 0.12 kg/m3 | mass density (288.15 K, x1 = 0.2004): 931.72 ± 0.12 kg/m3 | mass density (288.15 K, x1 = 0.2501): 939.54 ± 0.12 kg/m3 | mass density (288.15 K, x1 = 0.3022): 946.69 ± 0.12 kg/m3 | mass density (288.15 K, x1 = 0.3443): 951.7 ± 0.1 kg/m3 | mass density (288.15 K, x1 = 0.3987): 957.55 ± 0.12 kg/m3 | mass density (288.15 K, x1 = 0.4487): 962.3 ± 0.1 kg/m3 | mass density (288.15 K, x1 = 0.499): 966.62 ± 0.12 kg/m3 | mass density (288.15 K, x1 = 0.549): 970.42 ± 0.12 kg/m3 | mass density (288.15 K, x1 = 0.598): 973.72 ± 0.12 kg/m3 | mass density (288.15 K, x1 = 0.6483): 976.93 ± 0.12 kg/m3 | mass density (288.15 K, x1 = 0.6945): 979.61 ± 0.12 kg/m3 | mass density (288.15 K, x1 = 0.7483): 982.42 ± 0.12 kg/m3 | mass density (288.15 K, x1 = 0.7987): 984.81 ± 0.12 kg/m3 | mass density (288.15 K, x1 = 0.8489): 987.06 ± 0.12 kg/m3 | mass density (288.15 K, x1 = 0.9426): 990.76 ± 0.12 kg/m3 | mass density (288.15 K, x1 = 1): 992.74 ± 0.13 kg/m3 | mass density (298.15 K, x1 = 0.0501): 890.61 ± 0.13 kg/m3 | mass density (298.15 K, x1 = 0.1045): 904.03 ± 0.13 kg/m3 | mass density (298.15 K, x1 = 0.1503): 913.54 ± 0.13 kg/m3 | mass density (298.15 K, x1 = 0.2004): 922.5 ± 0.1 kg/m3 | mass density (298.15 K, x1 = 0.2501): 930.19 ± 0.12 kg/m3 | mass density (298.15 K, x1 = 0.3022): 937.18 ± 0.12 kg/m3 | mass density (298.15 K, x1 = 0.3443): 942.14 ± 0.12 kg/m3 | mass density (298.15 K, x1 = 0.3987): 947.88 ± 0.12 kg/m3 | mass density (298.15 K, x1 = 0.4487): 952.55 ± 0.12 kg/m3 | mass density (298.15 K, x1 = 0.499): 956.77 ± 0.12 kg/m3 | mass density (298.15 K, x1 = 0.549): 960.52 ± 0.12 kg/m3 | mass density (298.15 K, x1 = 0.598): 963.78 ± 0.12 kg/m3 | mass density (298.15 K, x1 = 0.6483): 966.95 ± 0.12 kg/m3 | mass density (298.15 K, x1 = 0.6945): 969.55 ± 0.12 kg/m3 | mass density (298.15 K, x1 = 0.7483): 972.33 ± 0.12 kg/m3 | mass density (298.15 K, x1 = 0.7987): 974.7 ± 0.1 kg/m3 | mass density (298.15 K, x1 = 0.8489): 976.91 ± 0.12 kg/m3 | mass density (298.15 K, x1 = 0.9426): 980.56 ± 0.13 kg/m3 | mass density (298.15 K, x1 = 1): 982.54 ± 0.13 kg/m3 | mass density (308.15 K, x1 = 0.0501): 882.01 ± 0.14 kg/m3 | mass density (308.15 K, x1 = 0.1045): 895.21 ± 0.13 kg/m3 | mass density (308.15 K, x1 = 0.1503): 904.57 ± 0.13 kg/m3 | mass density (308.15 K, x1 = 0.2004): 913.37 ± 0.12 kg/m3 | mass density (308.15 K, x1 = 0.2501): 920.94 ± 0.12 kg/m3 | mass density (308.15 K, x1 = 0.3022): 927.81 ± 0.12 kg/m3 | mass density (308.15 K, x1 = 0.3443): 932.7 ± 0.1 kg/m3 | mass density (308.15 K, x1 = 0.3987): 938.35 ± 0.12 kg/m3 | mass density (308.15 K, x1 = 0.4487): 942.93 ± 0.12 kg/m3 | mass density (308.15 K, x1 = 0.499): 947.08 ± 0.12 kg/m3 | mass density (308.15 K, x1 = 0.549): 950.76 ± 0.12 kg/m3 | mass density (308.15 K, x1 = 0.598): 954.02 ± 0.12 kg/m3 | mass density (308.15 K, x1 = 0.6483): 957.08 ± 0.12 kg/m3 | mass density (308.15 K, x1 = 0.6945): 959.65 ± 0.12 kg/m3 | mass density (308.15 K, x1 = 0.7483): 962.38 ± 0.12 kg/m3 | mass density (308.15 K, x1 = 0.7987): 964.71 ± 0.12 kg/m3 | mass density (308.15 K, x1 = 0.8489): 966.88 ± 0.13 kg/m3 | mass density (308.15 K, x1 = 0.9426): 970.47 ± 0.13 kg/m3 | mass density (308.15 K, x1 = 1): 972.34 ± 0.13 kg/m3 | mass density (318.15 K, x1 = 0.0501): 873.28 ± 0.14 kg/m3 | mass density (318.15 K, x1 = 0.1045): 886.26 ± 0.13 kg/m3 | mass density (318.15 K, x1 = 0.1503): 895.48 ± 0.13 kg/m3 | mass density (318.15 K, x1 = 0.2004): 904.14 ± 0.13 kg/m3 | mass density (318.15 K, x1 = 0.2501): 911.57 ± 0.12 kg/m3 | mass density (318.15 K, x1 = 0.3022): 918.32 ± 0.12 kg/m3 | mass density (318.15 K, x1 = 0.3443): 923.13 ± 0.12 kg/m3 | mass density (318.15 K, x1 = 0.3987): 928.69 ± 0.12 kg/m3 | mass density (318.15 K, x1 = 0.4487): 933.19 ± 0.12 kg/m3 | mass density (318.15 K, x1 = 0.499): 937.26 ± 0.12 kg/m3 | mass density (318.15 K, x1 = 0.549): 940.89 ± 0.12 kg/m3 | mass density (318.15 K, x1 = 0.598): 944.1 ± 0.1 kg/m3 | mass density (318.15 K, x1 = 0.6483): 947.12 ± 0.12 kg/m3 | mass density (318.15 K, x1 = 0.6945): 949.64 ± 0.12 kg/m3 | mass density (318.15 K, x1 = 0.7483): 952.33 ± 0.12 kg/m3 | mass density (318.15 K, x1 = 0.7987): 954.64 ± 0.13 kg/m3 | mass density (318.15 K, x1 = 0.8489): 956.77 ± 0.13 kg/m3 | mass density (318.15 K, x1 = 0.9426): 960.3 ± 0.1 kg/m3 | mass density (318.15 K, x1 = 1): 962.14 ± 0.13 kg/m3 | mass density (328.15 K, x1 = 0.0501): 864.53 ± 0.14 kg/m3 | mass density (328.15 K, x1 = 0.1045): 877.4 ± 0.1 kg/m3 | mass density (328.15 K, x1 = 0.1503): 886.45 ± 0.13 kg/m3 | mass density (328.15 K, x1 = 0.2004): 894.98 ± 0.13 kg/m3 | mass density (328.15 K, x1 = 0.2501): 902.32 ± 0.13 kg/m3 | mass density (328.15 K, x1 = 0.3022): 909.02 ± 0.12 kg/m3 | mass density (328.15 K, x1 = 0.3443): 913.69 ± 0.12 kg/m3 | mass density (328.15 K, x1 = 0.3987): 919.16 ± 0.12 kg/m3 | mass density (328.15 K, x1 = 0.4487): 923.59 ± 0.12 kg/m3 | mass density (328.15 K, x1 = 0.499): 927.63 ± 0.12 kg/m3 | mass density (328.15 K, x1 = 0.549): 931.18 ± 0.12 kg/m3 | mass density (328.15 K, x1 = 0.598): 934.32 ± 0.12 kg/m3 | mass density (328.15 K, x1 = 0.6483): 937.26 ± 0.12 kg/m3 | mass density (328.15 K, x1 = 0.6945): 939.74 ± 0.13 kg/m3 | mass density (328.15 K, x1 = 0.7483): 942.34 ± 0.13 kg/m3 | mass density (328.15 K, x1 = 0.7987): 944.57 ± 0.13 kg/m3 | mass density (328.15 K, x1 = 0.8489): 946.68 ± 0.13 kg/m3 | mass density (328.15 K, x1 = 0.9426): 950.08 ± 0.13 kg/m3 | mass density (328.15 K, x1 = 1): 951.94 ± 0.13 kg/m3
